pIC50: −log10 of the molar value. Structures can show the parent of a compound that is named as a salt.
Target: human 5-HT2A receptor (Homo sapiens (Human), UniProt P28223)
Test: [125I]DOI radioligand binding assay
Conditions: 0.5 nM [125I]DOI, membranes of COS7 cells transfected with human 5-HT2A receptor
Protocol: For the IP accumulation assay (Example 10), HEK293 cells were transfected while for the DOI binding assay (Example 11) COS7 cells were transfected. Several protocols well known in the art can be used to transfect cells. The following protocol is representative of the transfection procedures used herein for COS7 or 293 cells.
On day one, COS-7 cells were plated onto 24 well plates, usually 1×10^5 cells/well or 2×10^5 cells/well, respectively. On day two, the cells were transfected by first mixing 0.25 μg cDNA in 50 μL serum-free DMEM/well and then 2 μl lipofectamine in 50 μL serum-free DMEM/well. The solutions (“transfection media”) were gently mixed and incubated for 15-30 minutes at room temperature. The cells were washed with 0.5 mL PBS and then 400 μL of serum free media was mixed with the transfection media and added to the cells. The cells were then incubated for 3-4 hours at 37° C./5% CO2. Then the transfection media was removed and replaced with 1 mL/well of regular growth media.
Compounds of the invention were tested for their ability to bind to a 5-HT2A receptor clone membrane preparation using a radioligand binding assay. Briefly, COS cells were transiently transfected with a pCMV expression vector containing a human 5-HT2A receptor (for the sequence of the receptor see U.S. Pat. No. 6,541,209, SEQ ID NO:24) as described in Example 9.
COS7 cells transfected with recombinant human 5-HT2A receptors were cultured for 48 hr post transfection, collected, washed with ice-cold phosphate buffered saline, pH7.4 (PBS), and then centrifuged at 48,000×g for 20 min at 4° C. The cell pellet was then resuspended in wash buffer containing 20 mM HEPES pH 7.4 and 0.1 mM EDTA, homogenized on ice using a Brinkman polytron, and recentrifuged at 48,000×g for 20 min. at 4° C. The resultant pellet was then resuspended in 20 mM HEPES, pH 7.4, homogenized on ice, and centrifuged (48,000×g for 20 min at 4° C.). Crude membrane pellets were stored at −80° C. until used for radioligand binding assays.
Radioligand binding assays for human 5-HT2A receptor was conducted using the 5-HT2 agonist [^125]DOI as radioligand. To define nonspecific binding, 10 μM DOI was used for all assays. For competitive binding studies, 0.5 nM [^125]DOI was used and compounds were assayed over a range of 0.01 nM to 10 μM. Assays were conducted in a total volume of 200 μl in 96-well Perkin Elmer GF/C filter plates in assay buffer (50 mM Tris-HCl, pH 7.4, 0.5 mM EDTA, 5 mM MgCl2, and 10 μM pargyline). Assay incubations were performed for 60 min at room temperature and were terminated by rapid filtration under vacuum pressure of the reaction mixture over Whatman GF/C glass fiber filters presoaked in 0.5% PEI using a Brandell cell harvestor. Filters were then washing several times with ice-cold wash buffer (50 mM Tris-HCl, pH 7.4). Plates were then dried at room temperature and counted in a Wallac microBeta scintillation counter.

human 5-HT2A receptor, sequence (P28223 whole entry): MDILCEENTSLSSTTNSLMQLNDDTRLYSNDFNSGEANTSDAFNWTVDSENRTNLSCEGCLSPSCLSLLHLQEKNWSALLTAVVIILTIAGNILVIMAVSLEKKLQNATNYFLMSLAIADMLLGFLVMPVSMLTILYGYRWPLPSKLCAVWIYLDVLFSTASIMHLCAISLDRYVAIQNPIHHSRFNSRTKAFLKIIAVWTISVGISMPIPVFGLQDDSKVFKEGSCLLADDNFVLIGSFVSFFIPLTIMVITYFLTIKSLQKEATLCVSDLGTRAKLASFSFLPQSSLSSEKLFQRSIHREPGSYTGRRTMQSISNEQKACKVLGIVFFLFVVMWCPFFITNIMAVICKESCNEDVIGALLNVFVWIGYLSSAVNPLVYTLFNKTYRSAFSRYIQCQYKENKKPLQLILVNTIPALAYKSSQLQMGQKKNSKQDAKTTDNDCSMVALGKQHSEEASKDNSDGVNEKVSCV

SMILES | pIC50
Cn1nccc1-c1cc(NC(=O)C(=O)c2ccc(F)cc2)ccc1OCCN [Compound 32, N-[4-(2-Amino-ethoxy)-3-(2-methyl-2H-pyrazol-3-yl)-phenyl]-2-(4-fluoro-phenyl)-2-oxo-acetamide] | 10.60
Cn1ncc(Cl)c1-c1cc(NC(=O)c2ccc(F)c(C(F)(F)F)c2)ccc1OCCN [Compound 197, N-[4-(2-amino-ethoxy)-3-(4-chloro-2-methyl-2H-pyrazol-3-yl)-phenyl]-4-fluoro-3-trifluoromethyl-benzamide trifluoroacetate] | 9.00

Continued, values first:

pIC50 | SMILES
8.92 | Cn1ncc(Cl)c1-c1cc(NC(=O)c2cc(Br)cs2)ccc1OCCN [Compound 77, 4-bromo-thiophene-2-carboxylic acid [4-(2-amino-ethoxy)-3-(4-chloro-2-methyl-2H-pyrazol-3-yl)-phenyl]-amide trifluoroacetate]
7.04 | Cn1nccc1-c1cc(NC(=O)c2ccno2)ccc1OCCN [Compound 106, Isoxazole-5-carboxylic acid [4-(2-amino-ethoxy)-3-(2-methyl-2H-pyrazol-3-yl)-phenyl]-amide]
9.59 | Cn1ncc(Cl)c1-c1cc(NC(=O)C2CCC(C(F)(F)F)CC2)ccc1OCCN (stereo not shown) [Compound 303, 4-trifluoromethyl-cyclohexanecarboxylic acid [4-(2-amino-ethoxy)-3-(4-chloro-2-methyl-2H-pyrazol-3-yl)-phenyl]-amide trifluoroacetate]

System: JC virus
Test: not given
Conditions: cited from earlier work

SMILES | JC virus infection of human glial cells
O=C(c1ccc(F)cc1)C1CCN(CCn2c(=O)[nH]c3ccccc3c2=O)CC1 [ketanserin] | inhibited
Cc1nc2sccn2c(=O)c1CCN1CCC(=C(c2ccc(F)cc2)c2ccc(F)cc2)CC1 [ritanserin] | inhibited

Source: US8664258B2, “Primary amines and derivatives thereof as modulators of the 5-HT2A serotonin receptor useful for the treatment of disorders related thereto” (Arena Pharmaceuticals, Inc., priority 2006, dated 2014)
